This is an account of results in patent publication US4769389A, “Oxygenated-alkyl derivatives of glutamic and aspartic acids with antagonistic activity to bio-active polypeptides and a method for their preparation” (priority 1985, dated 1988).

≈ marks a conversion by molar mass, not a printed value. Read-outs that look alike come from different tables or passages of the source.

For one series, the system named is digestive tract. As to the kind of experiment: Antispastic activity, vegetable carbon test (speed of transit through stomach and intestine) in mice. In kind it is in vivo. The following applies: Mus musculus, ip, read-out: A[…] ED50 (dose which reduces the intestinal transit time of the carbon by 50%), intraperitoneally. From the text: The anti-spastic activity which the present compounds exert on the whole of the digestive tract is also considerable. Measured in mice with the vegetable carbon test (speed of transit through the stomach and intestine) this activity is illustrated in the following table: […]

The next series has as its system guinea-pig gallbladder. The series is described as follows: Anti-CCK activity on guinea-pig gallbladders in vitro (contraction by CCK-8). The following applies: for IC50: Cavia porcellus, CCK-8 10 ng/ml, in vitro. Here is the method:
ANTI-CCK ACTIVITY ON GUINEA-PIG GALLBLADDERS IN VITRO A longitudinal strip of guinea-pig gallbladder is placed in a bath for isolated organs in Krebs at a temperature of 32° C. and oxygenated continuously with an oxygen-CO2 mixture (95-[…]). The isometric contractions were detected by means of a force transducer and recorded. […] The results obtained are shown in Table 3 which gives the compounds tested and the IC50 values found which were calculated by the method of regression in a test of at least three experiments for each compound studied.

The test system of the next series is guinea pig gall bladders. The series is described as follows: Anti-CCK-8 activity on guinea-pig gallbladders in situ (in vivo). The note with it: Cavia porcellus, iv; CCK-8 10 ng/kg i.v.; compound i.v.; read-out: ID50, anti-CCK-8 activity in situ. The procedure:
In order to confirm the evidence of the studies in vitro, several of the more interesting compounds were tested in vivo with the use of guinea-pig gallbladders in situ.
The method used was that described by Ljungberg (Svensk. Farm. Tidskr. 69, 351-354, 1964).
Guinea-pigs having a weight of about 400 g anaesthetised with urethane were used; the substances being tested were administered intravenously (i.v.) into the jugular vein.
The responses of the gallbladder to the substances being tested were detected by means of a force transducer and recorded by means of a microdynamometer. 10 ng/kg of CCK 8 were chosen as the optimum contracting dose. The antagonistic compounds tested were administered in increasing doses so as to enable the calculation of an ID50 value, that is the dose (in mg/kg i.v.) having a 50% inhibiting effect against contractions induced by 10 ng/kg i.v. of CCK-8.

The nature of another series: in vivo. The note with it: mouse, iv.
A further series deals with colon of rabbits. As to the kind of experiment: Antispastic activity in the colon of rabbits stimulated with CCK-8. Format: in vivo, rabbit. Also on record: Antispastic activity in colon, EXPERIMENT 1 / Antispastic activity in colon, EXPERIMENT 2: unit not given here. The following applies: CCK 100 ng/kg. The procedure: The abdomen of anaesthetised rabbit is cut open to display the tranverse colon. A small balloon full of water is inserted at an established point and connected to a pressure transducer by means of a polyethylene cannula filled with H2 O.
The optimum sensitivity being fixed in relation to the physiological contractions, the products were administered through the femeral vein. Contractions were induced by the administration of 100 ng/kg of CCK.

The test system of series [1] is pancreatitis in rats induced experimentally by taurocholate. As to the kind of experiment: Pancreatitis induced by sodium taurocolate in rats. Format: in vivo. The note with it: for ED50: Rattus norvegicus, ip, taurocholate, rats. The procedure: The products under examination were administered intraperitoneally (i.p.) 30 minutes before the operation and 3 hours after the operation. Six hours after the laparatomy the blood was removed from the retro-orbitory plexus after anaesthesia with ether, the animals were killed and the pancreas was removed and weighed. The activity of the serum amylase was determined by the method described above.

Series [2] has as its system pancreatitis in mice induced experimentally by cerulein. The series is described as follows: Pancreatitis induced by cerulein in mice. Format: in vivo. The note with it: for ED50: Mus musculus, ip, cerulein, mice. Here is the method: Adult male mice received six injections of cerulein (Takus) (50 mcg/kg) each hour for six hours.
The compound was administered 30 minutes before each administration of cerulein. Nine hours after the beginning of the treatment, the blood was taken from the rectro-orbitory plexus after anaesthesia with ether, the animals were killed and the pancreas removed and weighed.

With `CCCCCN(CCCOCC)C(=O)C(CCC(=O)O)NC(=O)c1ccc(Cl)c(Cl)c1` (stereo not shown) [Compound 3], the ED50 in the series with digestive tract turned out to be 25 mg/kg. For the same compound, the IC50 with guinea-pig gallbladder came out at 0.6 µg/mL (≈ 1.26 µM). Besides, in the series with guinea pig gall bladders, the ED50 turned out to be 0.75 mg/kg. Further, in “in vivo”, the LD50 is 298 mg/kg and the selectivity ratio was found to be 397.
With `CCCCCN(CCCOC(C)C)C(=O)C(CCC(=O)O)NC(=O)c1ccc(Cl)c(Cl)c1` (stereo not shown) [Compound 4], in the series on guinea-pig gallbladder, the IC50 was 3 µg/mL (≈ 6.13 µM). Moreover, the ED50 with guinea pig gall bladders was 5.08 mg/kg.
`CCCCCN(CCOC)C(=O)C(CCC(=O)O)NC(=O)c1ccc(Cl)c(Cl)c1` (stereo not shown) [Compound 5]: the ED50 in the series on digestive tract was 20.8 mg/kg; with guinea pig gall bladders it was 0.68 mg/kg. In addition, in the series with guinea-pig gallbladder, the IC50 was 0.8 µg/mL (≈ 1.79 µM). The same compound gave an LD50 in “in vivo” of 485 mg/kg. Besides, the selectivity ratio in the series “in vivo” amounted to 713.
Take `CCCCCN(CCCO)C(=O)C(CCC(=O)O)NC(=O)c1ccc(Cl)c(Cl)c1` (stereo not shown) [Compound 6]: in the series on guinea-pig gallbladder, half-maximal inhibition (IC50) required 0.3 µg/mL (≈ 0.671 µM). Also, in the series on guinea pig gall bladders, the ED50 was 8.4 mg/kg.
`CCCCCN(CCCOC)C(=O)C(CCC(=O)O)NC(=O)c1ccc(C)c(C)c1` (stereo not shown) [Compound 7]: the ED50 with digestive tract was 33.9 mg/kg. The same compound gave an IC50 in the series with guinea-pig gallbladder of 0.9 µg/mL (≈ 2.14 µM). Besides, the ED50 with guinea pig gall bladders worked out at 0.65 mg/kg. Further, in the series “in vivo”, the LD50 stood at 440 mg/kg and the selectivity ratio is 677.
In the series on guinea-pig gallbladder, `CCCCCN(CCOCC)C(=O)C(CCC(=O)O)NC(=O)c1ccc(C)c(C)c1` (stereo not shown) [Compound 8] gave an IC50 of 1.1 µg/mL (≈ 2.62 µM). The ED50 with guinea pig gall bladders amounted to 2.02 mg/kg.
Taken in the same sequence, the figures for `CCCCCN(CCCOC)C(=O)C(CCC(=O)O)NC(=O)c1ccc(C)cc1` (stereo not shown) [Compound 9] were 4 µg/mL (≈ 9.84 µM) and 3.85 mg/kg.
`CCCCCN(CCCOC)C(=O)C(CCC(=O)O)NC(=O)c1cccc(C)c1` (stereo not shown) [Compound 10] yielded an IC50 in the series on guinea-pig gallbladder of 4.1 µg/mL (≈ 10.1 µM). Moreover, the ED50 in the series with guinea pig gall bladders was 3.66 mg/kg.
In the same order, the values of `CCCCCN(CCCOC)C(=O)C(CCC(=O)O)NC(=O)c1ccc(Cl)cc1` (stereo not shown) [Compound 11] are 2.6 µg/mL (≈ 6.09 µM) and 3.25 mg/kg.
In the same order, the values of `CCCCCN(CCOCC)C(=O)C(CCC(=O)O)NC(=O)c1ccc(Cl)cc1` (stereo not shown) [Compound 12] are 2.9 µg/mL (≈ 6.79 µM) and 4.44 mg/kg.
For `CCCCCN(CCCOC)C(=O)C(CCC(=O)O)NC(=O)c1cccc(Cl)c1` (stereo not shown) [Compound 13], the IC50 in the series with guinea-pig gallbladder worked out at 8.9 µg/mL (≈ 20.8 µM). In addition, the ED50 in the series with guinea pig gall bladders came out at 6.7 mg/kg.
`CCCCCN(CCCOC)C(=O)C(CCC(=O)O)NC(=O)c1ccc(F)c(F)c1` (stereo not shown) [Compound 14] showed an IC50 in the series on guinea-pig gallbladder of 0.8 µg/mL (≈ 1.87 µM). Moreover, the ED50 with guinea pig gall bladders turned out to be 1.1 mg/kg. In “in vivo”, the LD50 was 425 mg/kg and the selectivity ratio came out at 386.
For the compound `COCCCN(CCCC(C)C)C(=O)C(CCC(=O)O)NC(=O)c1ccc(Cl)c(Cl)c1` (stereo not shown) [Compound 15], the ED50 with digestive tract came out at 44.2 mg/kg. Moreover, the IC50 in the series on guinea-pig gallbladder came out at 0.7 µg/mL (≈ 1.47 µM). The ED50 with guinea pig gall bladders turned out to be 0.84 mg/kg. In the series “in vivo”, the LD50 stood at 288 mg/kg and the selectivity ratio was found to be 343.
As to `CCCCN(CCCOC)C(=O)C(CCC(=O)O)NC(=O)c1ccc(Cl)c(Cl)c1` (stereo not shown) [Compound 16], in the series on guinea-pig gallbladder, the half-inhibitory concentration (IC50) was found to be 1.5 µg/mL (≈ 3.35 µM). In addition, the ED50 in the series with guinea pig gall bladders is 2.08 mg/kg.
`CCCCCCN(CCCOC)C(=O)C(CCC(=O)O)NC(=O)c1ccc(Cl)c(Cl)c1` (stereo not shown) [Compound 17] had an IC50 in the series with guinea-pig gallbladder of 1.6 µg/mL (≈ 3.37 µM). Further, in the series with guinea pig gall bladders, the ED50 came out at 3.25 mg/kg.
In the same order, the values of `COCCCN(CCCC(C)(C)C)C(=O)C(CCC(=O)O)NC(=O)c1ccc(Cl)c(Cl)c1` (stereo not shown) [Compound 18] are 4.8 µg/mL (≈ 9.81 µM) and 6.79 mg/kg.
Consider `COCCCN(CCC(C)C)C(=O)C(CCC(=O)O)NC(=O)c1ccc(Cl)c(Cl)c1` (stereo not shown) [Compound 19], for which the ED50 in the series with digestive tract is 18.5 mg/kg. For the same compound, in the series with guinea-pig gallbladder, the IC50 was 0.6 µg/mL (≈ 1.3 µM). Besides, in the series with guinea pig gall bladders, the ED50 stood at 0.74 mg/kg. Further, in “in vivo”, the LD50 is 297 mg/kg and the selectivity ratio was determined as 401.
Taken in the same sequence, the figures for `CCCCCN(CCCOC)C(=O)C(CC(=O)O)NC(=O)c1ccc(Cl)c(Cl)c1` (stereo not shown) [Compound 20] were 27.9 mg/kg, 0.9 µg/mL (≈ 2.01 µM), 0.84 mg/kg, 362 mg/kg and 431.
In the series with guinea-pig gallbladder, `CCCCCN(CCCOC)C(=O)C(CC(=O)O)NC(=O)c1ccc(C)c(C)c1` (stereo not shown) [Compound 21] showed an IC50 of 4.7 µg/mL (≈ 11.6 µM). Besides, in the series with guinea pig gall bladders, the ED50 is 3.69 mg/kg.
Take `CCCN(CCC)C(=O)C(CCC(=O)O)NC(=O)c1ccccc1` (stereo not shown) [Proglumide, reference compound]: the “Antispastic activity in colon, EXPERIMENT 1” value is recorded as -33.7 with colon of rabbits (25 mg/kg i.v.), -38.1 in the series on colon of rabbits (50 mg/kg i.v.) and -64.4 in the series with colon of rabbits (100 mg/kg i.v.). The “Antispastic activity in colon, EXPERIMENT 2” value was 0 in the series with colon of rabbits (25 mg/kg i.v.), -16.1 with colon of rabbits (50 mg/kg i.v.) and -43.1 with colon of rabbits (100 mg/kg i.v.). In addition, the ED50 in the series with colon of rabbits (Oryctolagus cuniculus, iv) was 92.6 mg/kg; in series [1] (read-out: ED50, inhibition of amylase increase), 222 mg/kg; in series [1] (read-out: ED50, inhibition of weight increase), 467 mg/kg; in the series on guinea pig gall bladders, 70.5 mg/kg; in series [2] (read-out: ED50 (inhibition of weight increase)) it was 226 mg/kg; in series [2] (read-out: ED50, inhibition of weight increase of the pancreas), 241 mg/kg. This compound yielded an IC50 in the series on guinea-pig gallbladder of 340 µg/mL (≈ 1020 µM). Further, the “activity less than that of the most active compound in the invention” value with guinea-pig gallbladder (in vitro gallbladder) was “about 3000 times less”. Further, the “AMYLASE IN THE SERUM” value in series [1] (200 mg/kg i.p. + taurocholate) turned out to be 14.5 U/ml; in series [1] (400 mg/kg i.p. + taurocholate) it was 9.1 U/ml; in series [2] (200 mg/kg ip + cerulein), 48.2 U/ml; in series [2] (400 mg/kg ip + cerulein), 26.2 U/ml. In addition, the “INHIBITION OF AMYLASE INCREASE” value amounted to 45.5% in series [1] (200 mg/kg i.p. + taurocholate) and 89.4% in series [1] (400 mg/kg i.p. + taurocholate). In addition, the “INHIBITION OF WEIGHT INCREASE” value stood at 21.4% in series [1] (200 mg/kg i.p. + taurocholate), 42.8% in series [1] (400 mg/kg i.p. + taurocholate), 53.4% in series [2] (200 mg/kg ip + cerulein) and 80.9% in series [2] (400 mg/kg ip + cerulein). In addition, the “RATIO WEIGHT OF PANCREAS / ANIMAL WEIGHT” value in series [1] (200 mg/kg i.p. + taurocholate) worked out at 0.49%; in series [1] (400 mg/kg i.p. + taurocholate), 0.46%; in series [2] (200 mg/kg ip + cerulein) it was 0.47%; in series [2] (400 mg/kg ip + cerulein) it was 0.37%. The LD50 in “in vivo” amounted to 2400 mg/kg. For the same compound, the selectivity ratio in “in vivo” stood at 34. Further, the “INHIBITION OF WEIGHT INCREASE (pancreas)” value in series [2] (200 mg/kg ip + cerulein) was found to be 38.1%; in series [2] (400 mg/kg ip + cerulein) it was 85.7%. Further, the “activity of proglumide in cerulein pancreatitis” value in series [2] (in words) is reported as “also active but at considerably higher doses”.

The term IC50 denotes the concentration that inhibits the measured activity by half. As a reminder, the LD50 is the dose at which mortality reaches 50%.
